Measured values: ChEMBL document CHEMBL6177943, “Recent advances in small molecule design strategies against hepatic fibrosis” (Eur J Med Chem, 2025)

Assays:
LX-2 = assay: Anti-fibrotic activity in human LX-2 cells assessed as inhibition of alpha-SMA mRNA expression; format: functional; set-up: scale not given: the % may be the effect or the level left
[1] = Anti-hepatic activity in rat HSC-T6 cells assessed as inhibition of LPS-induced cell proliferation at 10 uM incubated for 24 hrs by MTS assay relative to control; format: functional
[2] = target: Collagen alpha-1(I) chain (Homo sapiens) (UniProt P02452); assay: Inhibition of COL1A1 (unknown origin) transfected in human LX-2 cells at 40 uM incubated for 24 hrs by Bright-Glo luciferase assay relative to control; format: cell-based
Sequence of Collagen alpha-1(I) chain (Homo sapiens) (P02452 whole entry): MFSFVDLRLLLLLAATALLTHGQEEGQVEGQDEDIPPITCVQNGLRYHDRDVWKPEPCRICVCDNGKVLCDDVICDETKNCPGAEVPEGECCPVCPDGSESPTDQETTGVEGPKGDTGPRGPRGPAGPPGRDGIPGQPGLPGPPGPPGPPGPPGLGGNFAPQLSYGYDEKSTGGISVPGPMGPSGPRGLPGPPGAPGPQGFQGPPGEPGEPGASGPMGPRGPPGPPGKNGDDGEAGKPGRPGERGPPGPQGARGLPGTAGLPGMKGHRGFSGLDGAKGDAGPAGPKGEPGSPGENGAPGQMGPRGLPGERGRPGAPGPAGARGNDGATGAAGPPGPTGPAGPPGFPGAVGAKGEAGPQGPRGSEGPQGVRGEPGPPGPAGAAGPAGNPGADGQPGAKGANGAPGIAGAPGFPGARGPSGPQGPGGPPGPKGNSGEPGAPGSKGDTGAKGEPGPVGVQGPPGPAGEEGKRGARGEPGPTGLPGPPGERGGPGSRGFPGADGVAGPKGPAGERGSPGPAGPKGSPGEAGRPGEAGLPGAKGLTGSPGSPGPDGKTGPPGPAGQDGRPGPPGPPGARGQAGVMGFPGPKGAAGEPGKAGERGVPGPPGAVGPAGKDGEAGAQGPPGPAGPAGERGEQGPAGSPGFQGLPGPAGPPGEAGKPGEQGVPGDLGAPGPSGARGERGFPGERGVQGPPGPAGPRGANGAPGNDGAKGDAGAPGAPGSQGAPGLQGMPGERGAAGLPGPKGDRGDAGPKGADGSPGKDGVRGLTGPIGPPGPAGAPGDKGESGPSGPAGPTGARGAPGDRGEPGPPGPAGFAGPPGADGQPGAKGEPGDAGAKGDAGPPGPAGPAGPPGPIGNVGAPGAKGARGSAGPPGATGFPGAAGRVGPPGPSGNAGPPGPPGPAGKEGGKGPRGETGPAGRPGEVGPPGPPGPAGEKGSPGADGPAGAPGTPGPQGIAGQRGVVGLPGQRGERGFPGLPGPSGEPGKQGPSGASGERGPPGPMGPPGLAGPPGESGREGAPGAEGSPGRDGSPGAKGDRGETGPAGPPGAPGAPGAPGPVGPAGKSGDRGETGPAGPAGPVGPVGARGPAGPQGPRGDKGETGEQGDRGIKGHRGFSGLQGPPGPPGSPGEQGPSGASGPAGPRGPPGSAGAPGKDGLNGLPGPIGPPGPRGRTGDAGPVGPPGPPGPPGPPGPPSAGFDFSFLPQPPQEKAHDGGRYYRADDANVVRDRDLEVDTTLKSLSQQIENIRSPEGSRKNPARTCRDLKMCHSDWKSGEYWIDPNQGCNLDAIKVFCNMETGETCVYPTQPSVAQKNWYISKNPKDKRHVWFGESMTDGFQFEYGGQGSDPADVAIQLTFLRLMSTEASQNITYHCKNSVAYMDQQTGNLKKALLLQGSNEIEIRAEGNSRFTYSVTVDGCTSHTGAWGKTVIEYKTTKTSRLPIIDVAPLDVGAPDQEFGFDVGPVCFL

[3] = Cmax in Sprague-Dawley rat at 25 mg/kg, po measured after 8 hrs; format: ADME, organism-based; settings: in vivo

CCCCCCCCN(C)C(=O)c1cc(O)c(O)c(O)c1 gave an Activity (LX-2) of 47.7%.
COC(=O)c1cc2cc(OC)c(OC)cc2c2cc(C)ccc12 showed an inhibition at 10 µM [1] of 34.2%.
O=c1cccc2n1C[C@@H]1CNC[C@H]2C1 showed an inhibition [2] of 90%.
O=c1cccc2n1CC1CC2CN(Cc2cc(Cl)ccc2Cl)C1 (stereo not given) gave a Cmax [3] of 960 nM.
For C1=C2CCCN[C@H]2[C@@H]2C[C@H]1[C@H]1CCCCN1C2, the inhibition [2] was 4.7%.
